Values quoted from earlier work as cited in patent US20230414607A1, “METHODS OF TREATMENT” (BOW RIVER LLC, priority 2017, published 2023).
Read-outs that look alike come from different tables or passages of the source.

Experiments:
[1] = cited from earlier work
[2] = molecular target: CYP3A4 (Homo sapiens, UniProt P08684); details: in vivo; cited from earlier work
CYP3A4, sequence (P08684 whole entry): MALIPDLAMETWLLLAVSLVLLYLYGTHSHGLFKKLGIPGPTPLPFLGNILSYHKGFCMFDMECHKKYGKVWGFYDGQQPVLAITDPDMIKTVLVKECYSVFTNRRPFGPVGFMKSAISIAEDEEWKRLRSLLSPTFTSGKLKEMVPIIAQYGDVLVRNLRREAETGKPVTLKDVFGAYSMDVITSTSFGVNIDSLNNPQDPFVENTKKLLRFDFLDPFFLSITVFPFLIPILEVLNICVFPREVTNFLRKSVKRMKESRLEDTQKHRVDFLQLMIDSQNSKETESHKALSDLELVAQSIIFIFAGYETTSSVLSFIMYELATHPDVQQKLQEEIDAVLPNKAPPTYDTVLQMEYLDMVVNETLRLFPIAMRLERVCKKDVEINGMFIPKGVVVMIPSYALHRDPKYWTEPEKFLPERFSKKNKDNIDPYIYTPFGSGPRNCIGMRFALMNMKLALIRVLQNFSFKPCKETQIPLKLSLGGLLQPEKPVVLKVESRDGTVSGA

## CO[C@H]1C[C@@H]2CC[C@@H](C)[C@@](O)(O2)C(=O)C(=O)N2CCCC[C@H]2C(=O)O[C@H]([C@H](C)C[C@@H]2CC[C@@H](OCCO)[C@H](OC)C2)CC(=O)[C@H](C)/C=C(\C)[C@@H](O)[C@@H](OC)C(=O)[C@H](C)C[C@H](C)/C=C/C=C/C=C/1C [everolimus]
[1]; 10 mg everolimus
  normal baseline AUC: mean AUC0-24±SD at steady state: about 536±7.7 ng*h/mL
  normal baseline Cmax: mean Cmax (% CV), steady state: 59.7±16.9 (21.7%) ng/mL

## CN1CC(=O)N2[C@H](c3ccc4c(c3)OCO4)c3[nH]c4ccccc4c3C[C@@H]2C1=O [tadalafil]
[1]; 10 mg tadalafil
  normal baseline AUC: mean AUC0-∞ (% CV): about 3647 (34.0%) μg*h/L
  normal baseline Cmax: mean Cmax (% CV): 190 (21.7%) μg/L
[1]; 20 mg tadalafil
  normal baseline Cmax: mean Cmax (% CV): 548 (24.0%) μg/L

## COc1cc(Nc2ncc(F)c(Nc3ccc4c(n3)NC(=O)C(C)(C)O4)n2)cc(OC)c1OC [R406]
[1]; in vivo
  Baseline AUC (% CV): 7080 (±2670) ng*h/mL
  Baseline Cmax (% CV): 550 (±270) ng/ml

## CCc1c2c(nc3ccc(O)cc13)-c1cc3c(c(=O)n1C2)COC(=O)[C@]3(O)CC [SN-38]
[1]; single 90 min infusion of irinotecan 125 mg/m^2, AUC0-24
  Baseline AUC (% CV): 229 ± 108 ng·h/mL
[1]; single 90 min infusion of irinotecan 125 mg/m^2
  Baseline Cmax (% CV): 26.3 ± 11.9 ng/mL
[1]; single 90 min infusion of irinotecan 340 mg/m^2, AUC0-24
  Baseline AUC (% CV): 474 ± 245 ng·h/mL
[1]; single 90 min infusion of irinotecan 340 mg/m^2
  Baseline Cmax (% CV): 56.0 ± 28.2 ng/mL

## COc1cc2c(cc1O)CCN[C@]21CS[C@@H]2c3c(OC(C)=O)c(C)c4c(c3[C@H](COC1=O)N1[C@@H]2[C@H]2c3c(cc(C)c(OC)c3O)C[C@@H]([C@@H]1O)N2C)OCO4 [trabectedin]
[2]
  AUC co-administration levels, Fold change: 1.66 fold
  AUC co-administration levels, Percent of baseline: 166%
  Cmax co-administration levels, Fold change: 1.22 fold
  Cmax co-administration levels, Percent of baseline: 122%
[1]; AUCinf one dose (24 hr infusion) at 600 ug/m^2
  Baseline AUC (% CV): 12 (±4.8) ng*h/mL
[1]; AUCinf one dose (24 hr infusion) at 900 ug/m^2
  Baseline AUC (% CV): 36 (±16) ng*h/mL
[1]; AUCinf one dose (24 hr infusion) at 1200 ug/m^2
  Baseline AUC (% CV): 32 (±13) ng*h/mL
[1]; AUCinf one dose (24 hr infusion) at 1500 ug/m^2
  Baseline AUC (% CV): 55 (±25) ng*h/mL
[1]; One dose (24 hr infusion) at 1500 ug/m^2
  Baseline Cmax (% CV): 1.8 (±1.1) ng/ml

## CCOc1cc2ncc(C#N)c(Nc3ccc(OCc4ccccn4)c(Cl)c3)c2cc1NC(=O)/C=C/CN(C)C [neratinib]
[2]
  AUC co-administration levels, Fold change: 5.81 fold
  AUC co-administration levels, Percent of baseline: 581%
  Cmax co-administration levels, Fold change: 4.21 fold
  Cmax co-administration levels, Percent of baseline: 421%
[1]; AUC0-24 single dose 180 mg
  Baseline AUC (% CV): 734 ± 291 ng·h/mL
[1]; AUC0-24 single dose 240 mg
  Baseline AUC (% CV): 823 ± 291 ng·h/mL
[1]; AUC0-24 single dose 320 mg
  Baseline AUC (% CV): 1582 ± 800 ng·h/mL
[1]; single dose 180 mg
  Baseline Cmax (% CV): 65.9 ± 34.7 ng/mL
[1]; single dose 240 mg
  Baseline Cmax (% CV): 75.9 ± 12.9 ng/mL
[1]; single dose 320 mg
  Baseline Cmax (% CV): 118 ± 47.6 ng/mL

## O=C(O[C@H]1CN2CCC1CC2)N1CCc2ccccc2[C@@H]1c1ccccc1 [solifenacin succinate]
[1]; in vivo, 5 mg
  normal baseline AUC: mean AUC0-24 (% CV) at steady state: about 463 (37%) ng*h/mL
  normal baseline Cmax: mean Cmax (% CV), steady state: 24.01 (30%) ng/mL
[1]; in vivo, 10 mg
  normal baseline AUC: mean AUC0-24 (% CV) at steady state: about 749 (22%) ng*h/mL
  normal baseline Cmax: mean Cmax (% CV), steady state: 40.61 (21%) ng/mL
